Earlier results as cited in PMC9516332 (Frontiers in Oncology, 2022).
Read-outs that look alike come from different tables or passages of the source.

Key:
Settings in all cases: cited from earlier work
[1] = target: T1, panel of 255 wild-type kinases (Homo sapiens, UniProt O14920)
T1 sequence (O14920 1-756): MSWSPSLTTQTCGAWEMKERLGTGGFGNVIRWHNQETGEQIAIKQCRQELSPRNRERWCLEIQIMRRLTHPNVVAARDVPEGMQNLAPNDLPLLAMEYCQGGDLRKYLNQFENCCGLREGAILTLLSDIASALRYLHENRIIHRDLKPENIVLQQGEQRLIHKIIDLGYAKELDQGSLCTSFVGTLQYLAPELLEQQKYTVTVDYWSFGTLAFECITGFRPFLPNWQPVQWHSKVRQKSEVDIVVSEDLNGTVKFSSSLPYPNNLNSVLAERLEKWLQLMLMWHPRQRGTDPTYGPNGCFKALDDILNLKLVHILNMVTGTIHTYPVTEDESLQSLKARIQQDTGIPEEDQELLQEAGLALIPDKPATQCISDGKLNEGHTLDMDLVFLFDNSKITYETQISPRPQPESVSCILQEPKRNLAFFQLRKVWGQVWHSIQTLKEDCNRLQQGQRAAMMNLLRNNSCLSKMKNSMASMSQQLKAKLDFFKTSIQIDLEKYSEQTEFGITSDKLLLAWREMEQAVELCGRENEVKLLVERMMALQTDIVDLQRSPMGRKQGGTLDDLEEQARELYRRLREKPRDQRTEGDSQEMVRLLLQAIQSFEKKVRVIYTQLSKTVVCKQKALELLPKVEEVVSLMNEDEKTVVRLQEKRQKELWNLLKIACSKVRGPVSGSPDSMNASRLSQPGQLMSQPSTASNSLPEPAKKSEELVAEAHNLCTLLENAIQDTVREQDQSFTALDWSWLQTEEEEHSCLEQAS

[2] = target: panel of 255 wild-type kinases (Homo sapiens, UniProt P07333)
[3] = target: panel of 255 wild-type kinases (Homo sapiens, UniProt P23458)
[4] = target: panel of 255 wild-type kinases (Homo sapiens, UniProt P53355)
[5] = target: panel of 255 wild-type kinases (Homo sapiens, UniProt Q9NQU5)
[6] = target: panel of 255 wild-type kinases (Homo sapiens, UniProt Q9P289)
[7] = target: T2, panel of 255 wild-type kinases (Homo sapiens, UniProt Q9UL54)
T2 sequence (Q9UL54 1-1235): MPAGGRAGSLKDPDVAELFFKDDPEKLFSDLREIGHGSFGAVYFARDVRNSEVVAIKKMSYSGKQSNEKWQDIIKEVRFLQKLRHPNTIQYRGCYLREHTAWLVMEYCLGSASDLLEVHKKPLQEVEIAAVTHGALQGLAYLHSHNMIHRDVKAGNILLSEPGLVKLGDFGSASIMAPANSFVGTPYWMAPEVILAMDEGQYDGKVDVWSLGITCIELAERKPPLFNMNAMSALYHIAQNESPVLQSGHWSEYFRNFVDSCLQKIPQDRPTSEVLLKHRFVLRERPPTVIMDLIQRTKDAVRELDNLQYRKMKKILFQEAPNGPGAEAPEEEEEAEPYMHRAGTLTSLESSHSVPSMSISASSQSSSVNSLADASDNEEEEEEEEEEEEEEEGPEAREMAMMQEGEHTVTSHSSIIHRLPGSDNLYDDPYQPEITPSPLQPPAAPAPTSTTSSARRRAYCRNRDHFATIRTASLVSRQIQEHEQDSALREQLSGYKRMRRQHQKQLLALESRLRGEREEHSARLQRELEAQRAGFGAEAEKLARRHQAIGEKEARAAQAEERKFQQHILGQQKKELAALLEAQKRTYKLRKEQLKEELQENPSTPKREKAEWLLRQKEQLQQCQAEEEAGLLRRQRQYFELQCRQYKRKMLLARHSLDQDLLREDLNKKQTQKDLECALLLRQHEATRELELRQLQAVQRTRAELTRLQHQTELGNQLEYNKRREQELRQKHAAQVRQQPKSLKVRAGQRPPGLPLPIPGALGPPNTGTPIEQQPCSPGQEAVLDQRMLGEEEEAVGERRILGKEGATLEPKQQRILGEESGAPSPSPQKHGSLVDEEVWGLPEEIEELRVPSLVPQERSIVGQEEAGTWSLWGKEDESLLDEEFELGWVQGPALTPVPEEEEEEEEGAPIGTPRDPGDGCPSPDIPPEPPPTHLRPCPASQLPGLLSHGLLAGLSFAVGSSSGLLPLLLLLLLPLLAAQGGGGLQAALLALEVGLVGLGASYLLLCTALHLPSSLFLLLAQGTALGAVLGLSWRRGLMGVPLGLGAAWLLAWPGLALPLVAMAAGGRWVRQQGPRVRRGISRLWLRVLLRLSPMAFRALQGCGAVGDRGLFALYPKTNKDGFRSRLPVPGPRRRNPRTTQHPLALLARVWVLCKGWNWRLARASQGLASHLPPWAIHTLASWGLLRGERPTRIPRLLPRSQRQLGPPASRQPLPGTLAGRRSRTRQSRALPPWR

[8] = target: panel of 255 wild-type kinases (Homo sapiens, UniProt Q9Y2H1)
[9] = kinase IKKβ, 1 µmol/L single concentration, ref DOI: 10.1158/1535-7163.MCT-18-0877
[10] = kinase FMS, 1 µmol/L single concentration, ref DOI: 10.1158/1535-7163.MCT-18-0877
[11] = kinase JAK1, 1 µmol/L single concentration, ref DOI: 10.1158/1535-7163.MCT-18-0877
[12] = kinase DAPK1, 1 µmol/L single concentration, ref DOI: 10.1158/1535-7163.MCT-18-0877
[13] = PAK6, 1 µmol/L single concentration, ref DOI: 10.1158/1535-7163.MCT-18-0877
[14] = MST4, 1 µmol/L single concentration, ref DOI: 10.1158/1535-7163.MCT-18-0877
[15] = kinase TAOK2, 1 µmol/L single concentration, ref DOI: 10.1158/1535-7163.MCT-18-0877
[16] = NDR2, 1 µmol/L single concentration, ref DOI: 10.1158/1535-7163.MCT-18-0877
[17] = kinase IKKβ, 1 µmol/L single concentration, ref DOI: 10.1371/journal.pone.0092146
[18] = kinase FMS, 1 µmol/L single concentration, ref DOI: 10.1371/journal.pone.0092146
[19] = kinase JAK1, 1 µmol/L single concentration, ref DOI: 10.1371/journal.pone.0092146
[20] = kinase DAPK1, 1 µmol/L single concentration, ref DOI: 10.1371/journal.pone.0092146
[21] = PAK6, 1 µmol/L single concentration, ref DOI: 10.1371/journal.pone.0092146
[22] = MST4, 1 µmol/L single concentration, ref DOI: 10.1371/journal.pone.0092146
[23] = kinase TAOK2, 1 µmol/L single concentration, ref DOI: 10.1371/journal.pone.0092146
[24] = NDR2, 1 µmol/L single concentration, ref DOI: 10.1371/journal.pone.0092146

| SMILES | %-inhibition at 1 µmol/L, IKKβ [1, 9] [%] | %-inhibition at 1 µmol/L, FMS [2, 10] [%] | %-inhibition at 1 µmol/L, JAK1 [3, 11] [%] | %-inhibition at 1 µmol/L, DAPK1 [4, 12] [%] | %-inhibition, PAK6 [5, 13] [%] | %-inhibition, MST4 [6, 14] [%] | %-inhibition at 1 µmol/L, TAOK2 [7, 15] [%] | %-inhibition, NDR2 [8, 16] [%] | %-inhibition at 1 µmol/L, IKKβ [1, 17] [%] | %-inhibition at 1 µmol/L, FMS [2, 18] [%] | %-inhibition at 1 µmol/L, JAK1 [3, 19] [%] | %-inhibition at 1 µmol/L, DAPK1 [4, 20] [%] | %-inhibition, PAK6 [5, 21] [%] | %-inhibition, MST4 [6, 22] [%] | %-inhibition at 1 µmol/L, TAOK2 [7, 23] [%] | %-inhibition, NDR2 [8, 24] [%] | other results |
| --- | --- | --- | --- | --- | --- | --- | --- | --- | --- | --- | --- | --- | --- | --- | --- | --- | --- |
| O=C(c1ccc(F)c(F)c1Nc1ccc(I)cc1F)N1CC(O)([C@@H]2CCCCN2)C1 [cobimetinib] | 1.29 | 5 | -8.53 | -4 | 2 | -0.477 | 5.42 | 2.54 |  |  |  |  |  |  |  |  |  |
| CO[C@@H]1[C@H](N(C)C(=O)c2ccccc2)C[C@H]2O[C@]1(C)n1c3ccccc3c3c4c(c5c6ccccc6n2c5c31)C(=O)NC4 [midostaurin] | -4 | 95 | 97 | 57 | 52 | 52 | 9 | 22 |  |  |  |  |  |  |  |  |  |
| C=CC(=O)N1CCC[C@@H](n2nc(-c3ccc(Oc4ccccc4)cc3)c3c(N)ncnc32)C1 [ibrutinib] | -0.348 | 19 | -10 | -3.8 | 9 | 1.46 | 5 | 3.47 |  |  |  |  |  |  |  |  |  |
| C[C@@H](Oc1cc(-c2cnn(C3CCNCC3)c2)cnc1N)c1c(Cl)ccc(F)c1Cl [crizotinib] |  |  |  |  |  |  |  |  | -5 | 92 | 47 | -4 | 3 | 0.54 | 33 | -4.76 |  |
| Cc1cc(Nc2ncc(Cl)c(Nc3ccccc3S(=O)(=O)C(C)C)n2)c(OC(C)C)cc1C1CCNCC1 [ceritinib] | -7 | 55 | -4.51 | 6 | 18 | 4 | 7 | 14 |  |  |  |  |  |  |  |  |  |
| CC(C)(C)c1nc(-c2cccc(NS(=O)(=O)c3c(F)cccc3F)c2F)c(-c2ccnc(N)n2)s1 [dabrafenib] |  |  |  |  |  |  |  |  | 3.71 | 15 | 5.7 | -0.54 | 9 | -7 | 34 | -2 |  |
| C=CC(=O)Nc1cc(Nc2nccc(-c3cn(C)c4ccccc34)n2)c(OC)cc1N(C)CCN(C)C [osimertinib] | -1.32 | 47 | -6 | 29 | 7 | 1.61 | 7 | 10 |  |  |  |  |  |  |  |  |  |
| CC#CC(=O)N1CCC[C@H]1c1nc(-c2ccc(C(=O)Nc3ccccn3)cc2)c2c(N)nccn12 [acalabrutinib] | -7 | 8 | -13 | -17 | -9 | -6.42 | 5.31 | -6.41 |  |  |  |  |  |  |  |  |  |
| COc1cc(N2CCC(N3CCN(C)CC3)CC2)ccc1Nc1ncc(Cl)c(Nc2ccccc2P(C)(C)=O)n1 [brigatinib] |  |  |  |  |  |  |  |  |  |  |  |  |  |  |  |  | %-inhibition at 1 µmol/L, IKKβ [1]: -4.22%; %-inhibition at 1 µmol/L, FMS [2]: 100%; %-inhibition at 1 µmol/L, JAK1 [3]: 31%; %-inhibition at 1 µmol/L, DAPK1 [4]: 83%; %-inhibition, PAK6 [5]: 26%; %-inhibition, MST4 [6]: -1.25%; %-inhibition at 1 µmol/L, TAOK2 [7]: 16%; %-inhibition, NDR2 [8]: 62% |
| CCCS(=O)(=O)Nc1ccc(F)c(C(=O)c2c[nH]c3ncc(-c4ccc(Cl)cc4)cc23)c1F [vemurafenib] |  |  |  |  |  |  |  |  | -3.31 | 6 | 46 | -0.115 | -7 | -4.62 | 5.35 | -2.51 |  |
| CCc1cc2c(cc1N1CCC(N3CCOCC3)CC1)C(C)(C)c1[nH]c3cc(C#N)ccc3c1C2=O [alectinib] | -5 | 19 | -10 | 58 | -8 | -7 | 5.52 | 4 |  |  |  |  |  |  |  |  |  |
| CC(=O)Nc1cccc(-n2c(=O)n(C3CC3)c(=O)c3c(Nc4ccc(I)cc4F)n(C)c(=O)c(C)c32)c1 [trametinib] |  |  |  |  |  |  |  |  | 0.741 | -4 | -1.83 | -6 | 8 | -2.23 | -2.59 | -1.48 |  |
